Among the data in US11498923B2 (Merck Sharp & Dohme Corp., priority 2017, dated 2022) are Ki values, retold here.

Each structure is given as a SMILES string.

T1 sequence (P29274 whole entry): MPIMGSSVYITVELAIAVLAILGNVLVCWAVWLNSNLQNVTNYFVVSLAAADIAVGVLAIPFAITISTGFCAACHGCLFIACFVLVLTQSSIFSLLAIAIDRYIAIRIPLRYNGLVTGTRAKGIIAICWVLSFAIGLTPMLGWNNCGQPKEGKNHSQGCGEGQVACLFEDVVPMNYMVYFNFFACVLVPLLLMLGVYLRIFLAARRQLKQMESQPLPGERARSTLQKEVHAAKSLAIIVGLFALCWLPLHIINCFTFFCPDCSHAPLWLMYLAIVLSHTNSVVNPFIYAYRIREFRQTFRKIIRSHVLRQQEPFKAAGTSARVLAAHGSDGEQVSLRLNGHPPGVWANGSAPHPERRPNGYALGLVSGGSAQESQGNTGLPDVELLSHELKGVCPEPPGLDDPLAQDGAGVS

This test has as its target T1, human A2a receptor (Homo sapiens, UniProt P29274).
T1 construct: purchased Perkin-Elmer RBHA2AM400UA; host or cells: HEK293 cells, used as a membrane preparation
Description: A2a receptor competition binding assay (Scintillation Proximity). The conditions noted are these: membranes from HEK293 cells expressing human A2a receptor; 0.5 nM tritiated ligand; Cheng-Prusoff; read-out: A2a Ki. The protocol: Binding affinities of compounds of the invention for the human A2a receptor were determined in a competition binding assay using Scintillation Proximity technology. Thus, 0.3 μg of membranes from HEK293 cells expressing the human A2a receptor were incubated with a compound of the invention at concentrations ranging from 3000 nM to 0.15 nM in a reaction mixture containing also 0.5 nM of a tritiated form of 5-amino-7-[2-phenethyl]-2-(furan-2-yl)-7H-pyrazolo[4,3-e][1,2,4]triazolo[1,5-c]pyrimidine (the tritiated compound) and 100 μg of wheat germ agglutin-coated yttrium silicate SPA beads for one hour at room temperature with agitation. The beads were then allowed to settle to the bottom of the wells for 1 hr, after which the membrane-associated radioactivity was determined by scintillation counting in a TopCount microplate reader. Ki values were determined using the Cheng-Prusoff equation.
Summary of Materials and Methods Used in A2a Activity Determination:
HEK293 cells expressing the human, rat, dog or monkey adenosine 2a receptor (Purchased from Perkin-Elmer #RBHA2AM400UA).
The Tritiated compound was prepared according to published methods.
Wheat germ agglutinin-coated yttrium silicate SPA beads (GE Healthcare #RPNQ0023). Dilute to 25 mg/ml in assay buffer.
Assay Buffer was prepared using Dulbecco's calcium and magnesium free phosphate buffered saline+10 mMMgCl2
Adenosine deaminase from calf intestine, 10 mg/2 ml (Roche #10 102 105 001).
A2a antagonist standard (9-chloro-1-(2-furanyl)-[1,2,4]triazolo1,5-c]quinazolin-5-amine from Tocris Bioscience)
Make eight 1:3 serial dilutions in 100% DMSO from a 3 mM compound stock
Transfer 50 nl of compound into a 384-well OptiPlate (Perkin Elmer).
Typically, final concentrations of compound used in the assay ranged from 3000 nM to 0.152 nM.
Dilute a solution of the Tritiated compound to 1.25 nM in assay buffer. This is a 2.5× solution. The final concentration in the assay is 0.5 nM. Calculate the concentration by counting two 5 μl aliquots.
Use 0.25 ug of membrane/well. Dilute membranes to 9.7 μg/ml in assay buffer. Treat with 20 ug/ml adenosine deaminase (ADA) for 15 minutes at room temperature to degrade endogenous adenosine.
Use 100 μg/well wheat germ agglutinin-coated yttrium silicate SPA beads.
Mix ADA-treated membranes and SPA beads together for 30 min prior to assay.
To the Perkin-Elmer Optiplate-384 containing the compound titration add 20 μl of 2.5× solution of the Tritiated compound and 30 μl of the membrane-bead mixture. Incubate for one hour at room temperature with agitation.
Include total binding (assay buffer+1% DMSO) and non-specific binding (CGS15943, 1 μM) wells.
Allow the beads to settle for one hour.
A curve fitting program (i.e., Prism, Activity Base, Chemcart) is used to determine the EC50. The Ki value is calculated using the Cheng-Prusoff equation. Ki=EC50/(1+(radioligand concentration/Kd))
`COc1cccc2c1nc(N)n1cc(C(=O)N3CCC(=O)C(C(C)C)C3)nc21` (stereo not shown) [Ex-199, 1-(5-amino-7-methoxyimidazo[1,2-c]quinazoline-2-carbonyl)-3-isopropylpiperidin-4-one]: the inhibition constant (Ki) came to 260 nM. Under `Nc1nc2c(F)cccc2c2nc(CN3CCN(CCc4ccccc4)CC3)cn12` [Ex-113, 7-fluoro-2-((4-phenethylpiperazin-1-yl)methyl)imidazo-[1,2-c]quinazolin-5-amine] stands 76 nM. Under `Nc1nc2cccc(F)c2c2nc(Cc3ccccc3)cn12` [Ex-09, 2-benzyl-10-fluoroimidazo[1,2-c]quinazolin-5-amine] stands 6.3 nM; under `Nc1nc2c(F)cccc2c2nc(C(=O)N3CCN4CCCC[C@H]4C3)cn12` [Ex-285, (S)-(5-amino-7-fluoroimidazo[1,2-c]quinazolin-2-yl)(octahydro-2H-pyrido[1,2-a]pyrazin-2-yl)methanone], 40 nM; under `N#Cc1ccc(N2CCC3(CCN(C(=O)c4cn5c(N)nc6c(F)cccc6c5n4)C3)C2)c(F)c1` (stereo not shown) [Ex-275, 4-(7-(5-amino-7-fluoroimidazo[1,2-c]quinazoline-2-carbonyl)-2,7-diazaspiro[4.4]nonan-2-yl)-3-fluorobenzonitrile], 43 nM. Under `Nc1nc2c(F)cccc2c2nc(CCN3CCN(c4ccccn4)CC3)cn12` [Ex-138] stands 28 nM; under `COc1cccc2c1nc(N)n1cc(C(=O)N3CCC4(CC3)OCCC4(C)C)nc21` [Ex-234, (5-amino-7-methoxyimidazo[1,2-c]quinazolin-2-yl)(4,4-dimethyl-1-oxa-8-azaspiro[4.5]decan-8-yl)methanone], 2.6 nM; under `COc1cccc2c1nc(N)n1cc(C(=O)N3C[C@@H]4C[C@H]3CO4)nc21` [Ex-225, (5-amino-7-methoxyimidazo[1,2-c]quinazolin-2-yl)((1S,4S)-2-oxa-5-azabicyclo[2.2.1]heptan-5-yl)methanone], 35 nM. `COc1cccc2c1nc(N)n1cc(C(=O)N3CC[C@H](OC)C3)nc21` [Ex-212, (S)-(5-amino-7-methoxyimidazo[1,2-c]quinazolin-2-yl)(3-methoxypyrrolidin-1-yl)methanone]: the inhibition constant (Ki) is 5.5 nM. Under `COc1cccc2c1nc(N)n1cc(C(=O)N3C[C@@H](C)O[C@@H](C)C3)nc21` [Ex-180, (5-amino-7-methoxyimidazo[1,2-c]quinazolin-2-yl)((2R,6S)-2,6-dimethylmorpholino) methanone] stands 53 nM; under `COc1cccc(CN2CCC(Cc3cn4c(N)nc5c(F)cccc5c4n3)CC2)c1` [Ex-310, 7-fluoro-2-((1-(3-methoxybenzyl)-piperidin-4-yl)-methyl)imidazo-[1,2-c]quinazolin-5-amine], 56 nM.

`COc1cccc2c1nc(N)n1cc(Cc3ccnc(N4CCOCC4)c3)nc21` [Ex-40, 7-methoxy-2-((2-morpholinopyridin-4-yl)methyl)imidazo[1,2-c]quinazolin-5-amine]: the Ki turned out to be 10 nM. To `COc1cccc2c1nc(N)n1cc(Cc3cccc(-c4ccccc4)c3)nc21` [Ex-24, 2-([1,1′-biphenyl]-3-ylmethyl)-7-methoxyimidazo[1,2-c]quinazolin-5-amine] belongs 10 nM; to `COc1cccc2c1nc(N)n1cc(Cc3cccnc3N3CCN(C)CC3)nc21` [Ex-51, 7-methoxy-2-((2-(4-methylpiperazin-1-yl)pyridin-3-yl)methyl)imidazo[1,2-c]quinazolin-5-amine], 23.9 nM. Under `CC1(O)CCN(Cc2cn3c(N)nc4ccccc4c3n2)CC1` [Ex-109, 1-((5-aminoimidazo[1,2-c]quinazolin-2-yl)methyl)-4-methylpiperidin-4-ol] stands 2460 nM; under `Cc1noc(C)c1-c1cccc2c1nc(N)n1cc(CNCc3ccccc3)nc21` [Ex-153, 2-((benzylamino)-methyl)-7-(3,5-dimethyl-isoxazol-4-yl)-imidazo[1,2-c]-quinazolin-5-amine], > 2200 nM.
